Experiments:
PC-3 tumor xenografts = details: in vivo, 1 h; cited from earlier work
GRPR (PC-3 cells) = target: T1, GRPR (PC-3 cells) (Homo sapiens, UniProt P30550); test: Fluorometric intracellular calcium release assay; type: cell-based; details: 50 nM, n = 3
T1 construct: GRPR-expressing prostate cancer PC-3 cells; host or cells: PC-3 prostate adenocarcinoma cells
Protocol: The antagonist/agonist characteristics of Lu-TacsBOMB5, Lu-LW01110, and Lu-LW01142 were determined following previously published procedure. A 96-well clear bottom black plate was seeded with 5 × 10^4 PC-3 prostate cancer cells/100 μL/well 24 h prior to the assay. The calcium-sensitive dye (FLIPR Calcium 6 assay kit from Molecular Devices, San Jose, CA, USA) in loading buffer (100 μL/well) was added into the 96-well plate, followed by 1 h incubation at 37 °C. After that, the plate was transferred into a FlexStation 3 microplate reader (Molecular Devices, San Jose, CA, USA). Lu-complexed nonradioactive standard (50 nM), [D-Phe^6,Leu-NHEt^13,des-Met^14]Bombesin(6–14) (50 nM, antagonist control), bombesin (50 nM, agonist control), adenosine triphosphate (ATP, 50 nM, positive control), or DPBS (blank control) was added, and the fluorescent signals were acquired for 2 min (λEx = 485 nm; λEm = 525 nm; n = 3). The relative fluorescent unit (RFU = max − min) was calculated to determine the agonistic/antagonistic characteristics for the tested ligands.

T1 sequence (P30550 whole entry): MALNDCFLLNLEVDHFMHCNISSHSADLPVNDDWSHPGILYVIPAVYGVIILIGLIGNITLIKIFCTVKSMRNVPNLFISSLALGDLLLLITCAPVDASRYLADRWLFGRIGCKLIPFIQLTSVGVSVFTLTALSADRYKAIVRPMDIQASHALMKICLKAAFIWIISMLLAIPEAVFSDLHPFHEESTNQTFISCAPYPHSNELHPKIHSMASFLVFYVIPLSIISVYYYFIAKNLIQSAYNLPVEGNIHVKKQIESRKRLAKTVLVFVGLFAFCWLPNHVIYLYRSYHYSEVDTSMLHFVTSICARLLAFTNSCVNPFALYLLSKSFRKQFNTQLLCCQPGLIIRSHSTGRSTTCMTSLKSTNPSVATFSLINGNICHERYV

Compound | Ca2+ efflux (RFU = max − min) (GRPR (PC-3 cells)) [RFUs] | uptake in PC-3 tumor xenografts (PC-3 tumor xenografts) [%ID/g]
^68Ga-DOTA-Pip-[D-Phe^6,Tle^10,NMe-His^12,Thz^14]Bombesin(6–14) [[^68Ga]Ga-LW01110] | – | 16.6 ± 1.60
^68Ga-DOTA-Pip-[D-Phe^6,NMe-Gly^11,Leu^13ψThz^14]Bombesin(6–14) [[^68Ga]Ga-TacsBOMB5] | – | 15.7 ± 2.17
Nc1ncnc2c1ncn2[C@@H]1O[C@H](COP(=O)(O)OP(=O)(O)OP(=O)(O)O)[C@@H](O)[C@H]1O [ATP, adenosine triphosphate] | 150 ± 40.7 | –

Second part, led by results:

Ca2+ efflux (RFU = max − min) (GRPR (PC-3 cells)) [RFUs] | Compound | uptake in PC-3 tumor xenografts (PC-3 tumor xenografts) [%ID/g]
29.7 ± 2.73 | [D-Phe^6,Leu-NHEt^13,des-Met^14]Bombesin(6–14) | –
235 ± 15.2 | bombesin | –
